# Experimental data published in US20210324359A1, “USE OF GRAM-NEGATIVE LYSIN-ANTIMICROBIAL PEPTIDE (AMP) POLYPEPTIDE CONSTRUCTS IN TREATING ENDOCARDITIS” (priority 2020, published 2021).
# Where two headings read alike, the source gives them in different places.
# Experiments:
# P. aeruginosa isolates = assay: MIC against a range of isolates in CAA + […] human serum (Table 11); format: cell-based, Pseudomonas aeruginosa; conditions: Pseudomonas aeruginosa
# [1] = system: 15 P. aeruginosa isolates; assay: MIC of GN370 in dog, human, rabbit and rat serum and CAAT; meropenem in CAMHB (Table 33); format: cell-based, Pseudomonas aeruginosa; conditions: Pseudomonas aeruginosa, CAMHB
# P. aeruginosa (PA20) = assay: Rabbit infective endocarditis model (Tables 28-32, FIGS. 5-8); format: in vivo, Pseudomonas aeruginosa in rabbits; conditions: Meropenem 5 mg/kg
# Experimental: Initially, a polyethylene catheter was placed into the rabbits' right ventricle and secured. 48 hours after catheter placement, rabbits were infected intravenously with P. aeruginosa (PA20) (6×10^9 CFU/mL). Treatment commenced 24 hours post-infection.
# Data were analyzed using the Kruskal-Wallis method for multiple comparison and then adjusted with a false discovery rate approach (Benjamini-Hochberg method), using StatsDirect Software. A p-value of <0.05 was considered statistically significant.
# [2] = system: carbapenem-resistant P. aeruginosa strains; assay: Resensitization of carbapenem-resistant strains, combinations with imipenem or meropenem (Tables 18-22); format: cell-based, Pseudomonas aeruginosa; conditions: for MIC: Pseudomonas aeruginosa
# [3] = in combination with GN123, isolate PA19
# [4] = in combination with GN123, isolate PA20
# [5] = in combination with GN123, isolate PA21
# [6] = in combination with GN123, isolate PA22
# [7] = in combination with GN123, isolate PA23
# [8] = in combination with GN123, isolate PA24
# [9] = in combination with GN123, isolate WC-452
structure (smiles),measurement,setting,value
"C[C@@H](O)[C@H]1C(=O)N2C(C(=O)O)=C(S[C@@H]3CN[C@H](C(=O)N(C)C)C3)[C@H](C)[C@H]12 [Meropenem, meropenem, reference compound]",MIC,"P. aeruginosa isolates; ATCC17646, read-out: Meropenem MIC, strain CFS 1109 (ATCC 17646)",0.5 µg/mL
same,MIC,"P. aeruginosa isolates; ATCC27853, read-out: Meropenem MIC, strain CFS 1766 (ATCC 27853)",1 µg/mL
same,MIC,"P. aeruginosa isolates; PA1, read-out: Meropenem MIC, strain CFS1539 (PA1)",16 µg/mL
same,MIC,"P. aeruginosa isolates; read-out: Meropenem MIC, strain CFS 1292",32 µg/mL
same,MIC,"P. aeruginosa isolates; read-out: Meropenem MIC, strain CFS 1540 (PA2)",16 µg/mL
same,MIC,"P. aeruginosa isolates; read-out: Meropenem MIC, strain CFS 1541 (PA3)",8 µg/mL
same,MIC,"P. aeruginosa isolates; read-out: Meropenem MIC, strain CFS 1557 (PA19)",32 µg/mL
same,MIC,"P. aeruginosa isolates; read-out: Meropenem MIC, strain CFS 1558 (PA20)",16 µg/mL
same,MIC,"P. aeruginosa isolates; read-out: Meropenem MIC, strain CFS 1559 (PA21)",> 32 µg/mL
same,MIC,"P. aeruginosa isolates; read-out: Meropenem MIC, strain CFS 1560 (PA22)",16 µg/mL
same,MIC,"P. aeruginosa isolates; read-out: Meropenem MIC, strain CFS 1561 (PA23)",16 µg/mL
same,MIC,"P. aeruginosa isolates; read-out: Meropenem MIC, strain CFS 1562 (PA24)",> 32 µg/mL
same,MIC,"P. aeruginosa isolates; read-out: Meropenem MIC, strain CFS 1596 (PA26)",0.5 µg/mL
same,MIC,"P. aeruginosa isolates; read-out: Meropenem MIC, strain CFS 1597 (PA27)",1 µg/mL
same,MIC,"P. aeruginosa isolates; read-out: Meropenem MIC, strain CFS 1669 (PA41)",< 0.25 µg/mL
same,MIC,"P. aeruginosa isolates; read-out: Meropenem MIC, strain CFS 1674 (PA46)",4 µg/mL
same,MIC,"P. aeruginosa isolates; read-out: Meropenem MIC, strain CFS 1675 (PA47)",4 µg/mL
same,MIC,"[1]; ATCC25668, read-out: MIC Meropenem, strain ATCC 25668",2 µg/mL
same,MIC,"[1]; ATCC27853, read-out: MIC Meropenem, strain ATCC 27853",0.5 µg/mL
same,MIC,"[1]; PA1, read-out: MIC Meropenem, strain PA1",32 µg/mL
same,MIC,"[1]; read-out: MIC Meropenem, strain AR0231",128 µg/mL
same,MIC,"[1]; read-out: MIC Meropenem, strain AR0241",> 256 µg/mL
same,MIC,"[1]; read-out: MIC Meropenem, strain AR0246",32 µg/mL
same,MIC,"[1]; read-out: MIC Meropenem, strain PA2",16 µg/mL
same,MIC,"[1]; read-out: MIC Meropenem, strain PA3",8 µg/mL
same,MIC,"[1]; read-out: MIC Meropenem, strain PA19",32 µg/mL
same,MIC,"[1]; read-out: MIC Meropenem, strain PA20",32 µg/mL
same,MIC,"[1]; read-out: MIC Meropenem, strain PA22",16 µg/mL
same,MIC,"[1]; read-out: MIC Meropenem, strain PA23",16 µg/mL
same,MIC,"[1]; read-out: MIC Meropenem, strain PA24",> 32 µg/mL
same,MIC,"[1]; read-out: MIC Meropenem, strain PA27",1 µg/mL
same,MIC,"[1]; read-out: MIC Meropenem, strain PA453",64 µg/mL
same,"Bacterial burden, Mean",P. aeruginosa (PA20); cardiac vegetation,7.22 log10 CFU/g
same,Mean log10 CFU change v. 24 hr control,P. aeruginosa (PA20); cardiac vegetation,−0.68 log10 CFU
same,Mean log10 CFU change v. vehicle,P. aeruginosa (PA20); cardiac vegetation,−0.13 log10 CFU
same,"Bacterial burden, Mean",P. aeruginosa (PA20); kidney tissue,4.64 log10 CFU/g
same,Mean log10 CFU change v. 24 hr control,P. aeruginosa (PA20); kidney tissue,−1.32 log10 CFU
same,Mean log10 CFU change v. vehicle,P. aeruginosa (PA20); kidney tissue,−0.55 log10 CFU
same,"Bacterial burden, Mean",P. aeruginosa (PA20); lung tissue,3.75 log10 CFU/g
same,Mean log10 CFU change v. 24 hr control,P. aeruginosa (PA20); lung tissue,−1.41 log10 CFU
same,Mean log10 CFU change v. vehicle,P. aeruginosa (PA20); lung tissue,−1.25 log10 CFU
same,"Bacterial burden, Mean",P. aeruginosa (PA20); spleen tissue,3.95 log10 CFU/g
same,Mean log10 CFU change v. 24 hr control,P. aeruginosa (PA20); spleen tissue,−1.00 log10 CFU
same,Mean log10 CFU change v. vehicle,P. aeruginosa (PA20); spleen tissue,−1.62 log10 CFU
same,MIC,[2]; isolate PA19,32 µg/mL
same,MIC,[2]; isolate PA20,16 µg/mL
same,MIC,[2]; isolate PA21,32 µg/mL
same,MIC,[2]; isolate PA22,16 µg/mL
same,MIC,[2]; isolate PA23,16 µg/mL
same,MIC,[2]; isolate PA24,32 µg/mL
same,MIC,[2]; isolate WC-452,16 µg/mL
same,"antibiotic MIC, Combination","[2]; in combination with GN121, isolate PA19",1 µg/mL
same,"antibiotic MIC, Combination","[2]; in combination with GN121, isolate PA20",1 µg/mL
same,"antibiotic MIC, Combination","[2]; in combination with GN121, isolate PA21",2 µg/mL
same,"antibiotic MIC, Combination","[2]; in combination with GN121, isolate PA22",1 µg/mL
same,"antibiotic MIC, Combination","[2]; in combination with GN121, isolate PA23",2 µg/mL
same,"antibiotic MIC, Combination","[2]; in combination with GN121, isolate PA24",1 µg/mL
same,"antibiotic MIC, Combination","[2]; in combination with GN121, isolate WC-452",1 µg/mL
same,"antibiotic MIC, Combination",[2]; [3],0.5 µg/mL
same,"carbapenem susceptibility class, Combination",[2]; [3],(S) ((S) = sensitive)
same,"antibiotic MIC, Combination",[2]; [4],0.5 µg/mL
same,"carbapenem susceptibility class, Combination",[2]; [4],(S) ((S) = sensitive)
same,"antibiotic MIC, Combination",[2]; [5],1 µg/mL
same,"carbapenem susceptibility class, Combination",[2]; [5],(S) ((S) = sensitive)
same,"antibiotic MIC, Combination",[2]; [6],1 µg/mL
same,"carbapenem susceptibility class, Combination",[2]; [6],(S) ((S) = sensitive)
same,"antibiotic MIC, Combination",[2]; [7],0.5 µg/mL
same,"carbapenem susceptibility class, Combination",[2]; [7],(S) ((S) = sensitive)
same,"antibiotic MIC, Combination",[2]; [8],2 µg/mL
same,"carbapenem susceptibility class, Combination",[2]; [8],(S) ((S) = sensitive)
same,"antibiotic MIC, Combination",[2]; [9],1 µg/mL
same,"carbapenem susceptibility class, Combination",[2]; [9],(S) ((S) = sensitive)
same,"carbapenem susceptibility class, Combination","[2]; in combination with GN351, vs. WC-452",(S) ((S) = sensitive)
same,"carbapenem susceptibility class, Combination","[2]; in combination with GN370, vs. WC-452",(S) ((S) = sensitive)
same,"carbapenem susceptibility class, Combination","[2]; in combination with GN428, vs. WC-452",(S) ((S) = sensitive)
same,"carbapenem susceptibility class, antibiotic Alone",[2]; isolate PA19,R ((R) = resistant)
same,"carbapenem susceptibility class, antibiotic Alone",[2]; isolate PA20,R ((R) = resistant)
same,"carbapenem susceptibility class, antibiotic Alone",[2]; isolate PA21,R ((R) = resistant)
same,"carbapenem susceptibility class, antibiotic Alone",[2]; isolate PA22,R ((R) = resistant)
same,"carbapenem susceptibility class, antibiotic Alone",[2]; isolate PA23,R ((R) = resistant)
same,"carbapenem susceptibility class, antibiotic Alone",[2]; isolate PA24,R ((R) = resistant)
same,"carbapenem susceptibility class, antibiotic Alone",[2]; isolate WC-452,R ((R) = resistant)
same,"Antibiotic MIC / Lysin MIC, Alone",[2]; vs. WC-452 (Table 22),16
